One block for each compound: values may come before it.
Tests used:
[1] = Bidirectional transport across Caco-2 cell monolayers; conditions: human, Caco-2, pH 7.4
Experimental: (§1) To investigate the intestinal absorption and transport properties of the three DiCQAs and three PGAs, 14-day cultured Caco-2 monolayer cells were used for the bidirectional transport study.
(§2) It was cultured in Dulbecco’s Modified Eagle Medium (DMEM medium, Hyclone, Logan, UT, USA) containing high glucose (4.5 g/L) plus 10% fetal bovine serum (Biological Industries, Beit Haemek, Israel), 1% L-glutamine and 1% penicillin-streptomycin (Hyclone) at 37 °C, 5% CO2 with constant humidity controlled environment. The medium was replaced three times a week during cell growth and differentiation. Cells used in this study were between passages 25 and 40.
(§3) After the cells in the flask grew to 90%–100% confluency, cells were trypsinized and seeded on 12 mm transwells with 0.4 µm pore polyester membrane insert (product #3460, Corning Inc., Corning, NY, USA) at a density 2 × 10^5 cells/mL. Culture medium (0.5 mL and 1.5 mL, respectively) was added into the space between the transwell and the plate. The culture was incubated at 37 °C under 5% CO2 atmosphere and the medium was changed fresh every 48 h. The transepithelial electrical resistance (TEER) was measured with Millicell-ERS epithelial Voltohmmeter (Millipore, Bedford, MA, USA), which was reflected to the tightness of intercellular junctions and only cells with TEER (in Ω/cm^2) >300 Ω/cm^2 (at 14 day) were used for permeability study.
(§4) Before conducting the permeation test, the trasnswell insert was emerged and rinsed in 25 mM HEPES (pH 7.4 Hank’s Balanced Salt Solution, HBSS) and rinsed twice at 37 °C under 5% CO2 atmosphere, each time for 30 min. The paracellular marker molecule mannitol (low permeability), propranolol (highly permeability), and EM fraction (1 mg/mL) were separately dissolved in DMSO and diluted with HBSS to final concentrations of 50 μM, 10 μM, and 1 mg/mL (at non-cytotoxic concentration), respectively. The solutions were respectively transferred into the apical and basolateral zones of the transwell insert with the other side filled up with HBSS. The same pH (7.4) was used both in apical-to-basolateral (A→B) and basolateral-to-apical (B→A) transport directions during each experiment. The whole apparatus was incubated at 37 °C under 5% CO2 atmosphere and the permeation was examined at time point 5, 15, 30, and 60 min, respectively. Permeates obtained from various direction were analyzed with HPLC and LC-MS according to the aforementioned method. The apparent permeability coefficients (Papp, cm/s) and the efflux ratio were calculated according to the literature: Papp = (V/A × C0) × (dQ/dt) where V is the volume of receiver part (0.5 mL and/or 1.5 mL).
(§5) A is the surface area of the cell monolayer (1.1 cm^2).
(§6) C0 is the initial concentration of the extract (1 mg/mL).
(§7) dQ/dt is the cumulative transport rate (mg/mL/min). Efflux ratio = Papp,B→A/Papp,A→B

Caco-2 cells = test: as above; conditions: pH 7.4, up to 60 min; for Papp, apical to basolateral flux: A→B, compounds tested within EM 1 mg/mL, mannitol 50 μM, 14-day monolayers
Experimental: as §1, §2, §3, §4, §5, §6, §7

db/db mice = tested on: db/db mice; set-up: method as in doi:10.1016/j.jfca.2010.03.025; conditions: i.p., compared to the other two polyacetylenic glucosides; cited from earlier work

- efflux ratio at 60 min, 1 mg/mL [1]: 32.1
SMILES: CC#CC#CC#C/C=C/CCC(CO)O[C@@H]1O[C@H](CO)[C@@H](O)[C@H](O)[C@H]1O (stereo partly drawn) [PGA 4, 2-β-D-glucopyranosyloxy-1-hydroxy-5(E)-tridecene-7,9,11-triyne]
- Papp, apical to basolateral flux (Caco-2 cells): higher than the paracellular transport marker mannitol

- Papp A→B at 60 min, 50 μM [1]: 0.43 ± 0.1 ×10⁻⁶ cm/s
SMILES: OC[C@@H](O)[C@@H](O)[C@H](O)[C@H](O)CO [mannitol, reference compound]

- Papp at 60 min, 10 μM [1]: 39.4 ± 4.12 ×10⁻⁶ cm/s
SMILES: CC(C)NCC(O)COc1cccc2ccccc12 (centres unmarked) [propranolol, reference compound]

SMILES: O=C(/C=C/c1ccc(O)c(O)c1)O[C@H]1[C@H](O)C[C@](O)(C(=O)O)C[C@H]1OC(=O)/C=C/c1ccc(O)c(O)c1 [DiCQA 3, 4,5-di-O-caffeoylquinic acid]
- Papp, apical to basolateral flux (Caco-2 cells): higher than the paracellular transport marker mannitol

SMILES: O=C(/C=C/c1ccc(O)c(O)c1)O[C@@H]1[C@@H](OC(=O)/C=C/c2ccc(O)c(O)c2)C[C@@](O)(C(=O)O)C[C@@H]1O [DiCQA 1, 3,4-di-O-caffeoylquinic acid]
- Papp, apical to basolateral flux (Caco-2 cells): higher than the paracellular transport marker mannitol

SMILES: CC#CC#CC#C/C=C/CCC(CCO)O[C@@H]1O[C@H](CO)[C@@H](O)[C@H](O)[C@H]1O (stereo partly drawn) [PGA 6, 3-β-D-glucopyranosyloxy-1-hydroxy-6(E)-tetradecene-8,10,12-triyne]
- efflux ratio at 60 min, 1 mg/mL [1]: 6.03
- Papp, apical to basolateral flux (Caco-2 cells): higher than the paracellular transport marker mannitol

- Papp, apical to basolateral flux (Caco-2 cells): lower than the Papp for mannitol
- Papp, basolateral to apical flux (Caco-2 cells; B→A, compound within EM 1 mg/mL): closed to that of propranolol
SMILES: CC#CC#CC#CC#CCCC(CO)O[C@@H]1O[C@H](CO)[C@@H](O)[C@H](O)[C@H]1O (stereo partly drawn) [PGA 5, 2-β-D-glucopyranosyloxy-1-hydroxytrideca-5,7,9,11-tetrayne]
- Increasing serum insulin, reducing blood glucose levels and glycosylated HbA1c levels (db/db mice): most effective compound

Reference: article PMC6269719, “Extraction of Antioxidant Components from Bidens pilosa Flowers and Their Uptake by Human Intestinal Caco-2 Cells” (Molecules, 2013)
